Legend:
[1] = tested on: CD19+CD11b+ and CD19+CD11b− cardiac lymphocytes; test: Transcriptional profiling (RNAseq, KEGG) of sorted cardiac B lymphocytes; type: in vivo, mouse; conditions: DTR+PFD hearts vs naïve
Excerpt: To gain insight into the mechanism(s) responsible for the immunomodulatory effects of Pirfenidone, we performed transcriptional profiling on CD19+CD11b+ and CD19+CD11b− cardiac lymphocytes that were FACS sorted from naïve, DT-injured mice fed normal chow, and DT-injured mice treated with Pirfenidone chow. […]
We performed transcriptional profiling of cardiac lymphocytes that were isolated from naïve and DTR injured hearts in the presence and absence of Pirfenidone. […] Single-end, 50 bp reads were obtained on an Illumina HiSeq 3000 and aligned to the IIlumina iGenomes GRCm38_Ensembl release of the mouse transcriptome using Tophat2.1(41), yielding an average of 1.8×107 aligned reads per sample. Gene-level quantitation was performed using HTSeq 2(42). mRNAs were included in downstream analyses if present in all biological replicates in any of the 6 experimental groups (CD19+CD11b+ and CD19+CD11b− from WT, DT and DT+PFD) at an abundance of at least 1 read per million. […] KEGG pathways within the following 3 categories were analyzed: signal transduction (3.2), signaling molecules and interactions (3.3), and immune system (5.1).

[2] = tested on: Peritoneal derived inflammatory cells; test: In vitro immunomodulatory effect of tested PEG compounds (CD86 on CD19+ cells, LPS); type: cell-based, mouse; conditions: LPS 100 ng/ml, 24 h, various concentrations
Experimental: Peritoneal derived inflammatory cells were collected on day for post intraperitoneal injection of Thyoglicollate. Cells were cultured for 24 h in baseline condition (control), in the presence of LPS 100 ng/ml (LPS) or in the presence of LPS 100 ng/ml and various concentrations of different forms of Pegylated Pirfenidone (named C2 and C3 in FIG. 11A and C4 to C6 in FIG. 11B)). After the 24 h in culture cells were collected and analyzed via flow cytometry to assess the expression of CD86 on CD19+ cells (B lymphocytes). […] FIG. 11C reports the molecular weights of the tested forms of PEGylated Pirfenidone and the molecular weight (MW) ration between the tested compound and Pirfenidone).

## Cc1ccc(=O)n(-c2ccccc2)c1 [Pirfenidone, 5 methyl-1-phenyl-2-[H] pyridone]
[1]; 6 pathways
  KEGG pathways enriched after DT injury in CD19+CD11b+ lymphocytes: not activated
[1]; with the exception of the hematopoietic cell lineage pathway
  KEGG pathways enriched after DT injury in CD19+CD11b− lymphocytes: none of these pathways was significantly enriched
[2]
  expression of CD86 on CD19+ cells: reduced
